The target of test [1] is Botulinum neurotoxin type A (Clostridium botulinum) (UniProt P0DPI0). Kind of test: Ratio of Ki for NSC 300510 to compound Ki for clostridium botulinum Botulinum neurotoxin type A light chain by RP-HPLC analysis.
The target of test [2] is Botulinum neurotoxin type A (Clostridium botulinum, UniProt P0DPI0). Description: Competitive inhibition of clostridium botulinum Botulinum neurotoxin type A light chain by RP-HPLC analysis.
Test [3] addresses Botulinum neurotoxin type A (Clostridium botulinum) (UniProt P0DPI0). Description: Inhibition of clostridium botulinum Botulinum neurotoxin type A light chain at 20 uM by RP-HPLC analysis.

Data on 6 compounds can be found in ChEMBL document CHEMBL2034965, “The synthesis of 2,5-bis(4-amidinophenyl)thiophene derivatives providing submicromolar-range inhibition of the botulinum neurotoxin serotype A metalloprotease” (Eur J Med Chem, 2012).

SMILES strings stand for the structures.

Sequence of Botulinum neurotoxin type A (P0DPI0 2-448 limits assumed): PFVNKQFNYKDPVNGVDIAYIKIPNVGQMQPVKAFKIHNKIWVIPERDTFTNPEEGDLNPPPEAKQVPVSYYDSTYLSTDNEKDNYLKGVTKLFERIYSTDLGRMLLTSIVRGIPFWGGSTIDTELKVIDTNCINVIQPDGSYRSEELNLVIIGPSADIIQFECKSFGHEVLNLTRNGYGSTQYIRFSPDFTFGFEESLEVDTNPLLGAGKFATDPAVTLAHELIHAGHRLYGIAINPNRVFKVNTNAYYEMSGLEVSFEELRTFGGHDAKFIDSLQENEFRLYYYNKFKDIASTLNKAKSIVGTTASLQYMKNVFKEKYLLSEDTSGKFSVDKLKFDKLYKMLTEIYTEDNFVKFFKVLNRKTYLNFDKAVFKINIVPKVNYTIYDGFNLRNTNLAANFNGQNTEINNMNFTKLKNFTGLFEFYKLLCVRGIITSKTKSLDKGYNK
Sequence of Botulinum neurotoxin type A (Clostridium botulinum) (P0DPI0 2-448 limits assumed): as above

With `Clc1ccc2c(NCCCNCc3ccc(-c4ccc(-c5ccc(CNCCCNc6ccnc7cc(Cl)ccc67)cc5)s4)cc3)ccnc2c1`, the Ratio Ki in test [1] stood at 36.
In the case of `Clc1ccc2c(NCCCCCNCc3ccc(-c4ccc(-c5ccc(CNCCCCCNc6ccnc7cc(Cl)ccc67)cc5)s4)cc3)ccnc2c1`, the Ki – broadly, the dissociation constant of the complex between target and ligand, obtained from inhibition or displacement – in test [2] worked out at 889 nM.
On the same count and under the same terms, for `Clc1ccc2c(NCCNCc3ccc(-c4ccc(-c5ccc(CNCCNc6ccnc7cc(Cl)ccc67)cc5)s4)cc3)ccnc2c1` the value was 882 nM; for `Clc1ccc2c(NCCCCNCc3ccc(-c4ccc(-c5ccc(CNCCCCNc6ccnc7cc(Cl)ccc67)cc5)s4)cc3)ccnc2c1`, 535 nM.
As for `O=C(NCCCNc1ccnc2cc(Cl)ccc12)c1cc(NC(=O)c2ccc(C(=O)Nc3cc(C(=O)NCCCNc4ccnc5cc(Cl)ccc45)cc(C4=NCCN4)c3)cc2)cc(C2=NCCN2)c1`, the Ratio Ki in test [1] worked out at 15.
As for `N=C(N)c1ccc(-c2ccc(-c3ccc(C(=N)N)cc3)s2)cc1`, the inhibition (as a rule, the relative decrease from the control value, in per cent) in test [3] is 78%. Moreover, the Ki in test [2] came out at 10900 nM.
